Measured values as given in PubChem BioAssay AID1963436 (Molecular Pharmacology Branch, DTP, NCI, 2024).

Test system: OVCAR-5 complex spheroid (HUVEC/MSC), viability % T/C
Assay: Anticancer human tumor OVCAR-5 cell line growth inhibition [Asc];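 note: spheroids exposed to agents for 7 days before readout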;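 for viability, T/C: 100% = DMSO vehicle-treated wells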
Details: for IC50: curve of first compound; for viability, T/C: stronger effect = lower value
Method: Multicellular complex tumor spheroid response to apoptosis pathway targeting inhibitors Alrizomadlin, Pelcitoclax, and Dasminapant in combination with a variety of drugs and investigational agents in selected tumor cell lines
The MDM2 inhibitor alrizomadlin, the Bcl-2/Bcl-xL inhibitor pelcitoclax, and the IAPs inhibitor dasminapant were evaluated both individually and in combination with standard of care and investigational anticancer small molecules within a complex spheroid model of solid tumors. . Complex spheroids include a stromal component modeled by human endothelial cells (HUVEC) and fibroblasts modeled by human mesenchymal stem cells (MSCs). The concentration ranges selected for each drug and investigational agent were based upon clinically achievable concentrations if the clinical Cmax of the agent was known.
Compounds. The drugs and investigational agents: alrizomadlin (APG-115; NSC831270), pelcitoclax (APG-1252; NSC835773), dasminapant (APG-1387;NSC834197), TAK-243 (NSC785004), copanlisib (NSC809693), olaparib (NSC753686), talazoparib (NSC767125), cobimetinib (NSC 768068), eltanexor (KPT-8602, NSC 794443), abemaciclib (NSC 768073), sotorasib (NSC818433), adagrasib (NSC 831453), MRTX-1133 (NSC 836407), Iadademestat (ORY1001, NSC 806812), and RMC-4630 (NSC839698), were obtained from the NCI Developmental Therapeutics Program Chemical Repository. The FDA-approved anticancer drug set is available from the Developmental Therapeutics Program at https://dtp.cancer.gov/organization/dscb/obtaining/available plates.htm. […] The stock solutions were prepared in dimethyl sulfoxide (DMSO, Sigma-Aldrich, St. Louis, MO, cat. D2650) at 800-fold the tested concentration and stored at -70 degrees C prior to their use. All drugs and investigational agents were tested over a range starting from a high concentration at or near the clinical Cmax and decreasing in half-log increments. If the clinical Cmax for an agent had not been determined, the highest concentration tested was 10 microM.
The patient-derived cancer (PDC) cell lines include five colon adenocarcinomas: 186277-243-T-J2-PDC, 616215-338-R-J1-PDC, 439559-082-T-J2-PDC, 463943-066-T-J2-PDC, and 519858-162-T-J1-PDC; three pancreatic carcinomas: 323965-272-R-J2-PDC, 521955-158-R6-J3-PDC, and 521955-158-R2-J5-PDC; two uterine sarcomas: 327498-152-R-J2-PDC and 993429-296-R-J1-PDC; two rhabdomyosarcomas: 755483-174-R-J1-PDC and 772245-204-R-J1-PDC; two soft tissue sarcomas: 126254-015-R-J1-PDC and 494315-158-R-J1-PDC; two malignant fibrous histiocytomas: 317291-083-R-J1-PDC and 596521-263-R-J1-PDC; two breast carcinomas: 171881-019-R-J1-PDC and 885512-296-R-J2-PDC; and one ovarian carcinoma: 6556581-035-R-J-PDC were obtained from the NCI PDMR, (https://pdmr.cancer.gov). The established cell lines HSSY-2 synovial sarcoma (RRID:CVCL 8719), SYO-1 synovial sarcoma (RRID:CVCL_7146), MPNST malignant peripheral neural sheath tumor were obtained from the Sloan Kettering Institute. The following established cell lines were purchased from the American Type Culture Collection (ATCC, Manassas, VA), Sor the received from the NCI repository:, PANC-1 pancreatic carcinoma (CRL-1469, RRID:CVCL_0480), OVCAR-5 ovarian carcinoma (RRID:CVCL_1628), OVCAR-8 ovarian carcinoma (RRID:CVCL_1629), , MCF-7 breast carcinoma (CRL-12584, RRID:CVCL_0031), MDA-MB-231 breast carcinoma (CRL-12532, RRID:CVCL_0062), NCI-H1876 small cell lung carcinoma (CRL-5902, RRID:CVCL_1503), NCI-H510A small cell lung carcinoma (HTB-184, RRID:CVCL_1565), NCI-H1417 (CRL-5869, RRID:CVCL_1469), and NCI-H196 small cell lung carcinoma (CRL-5823, RRID:CVCL_1509). Dr. Peter Houghton (Greehey Children's Cancer Research Institute, University of Texas Health Science Center, San Antonio, TX) provided Rh-18 rhabdomyosarcoma (RRID:CVCL_1659). Pooled donor human umbilical vein endothelial cells (HUVEC, Lonza, cat. CC-2519) and human mesenchymal stem cells (hMSC, Lonza, cat. PT-2501) were purchased from Lonza (Walkersville, MD).
Cell Culture. […]

Structure (SMILES): NC(=O)C(=Cn1cnc(-c2cc(C(F)(F)F)cc(C(F)(F)F)c2)n1)c1cncnc1 + CCN1C(C(=O)NC23CCC(C(=O)O)(CC2)CC3)C(c2cccc(Cl)c2F)C2(C(=O)Nc3cc(Cl)ccc32)C12CCCCC2
- IC50 (second compound 0.03 µM): 0.299 µM
- IC50 (second compound 0.0949 µM): > 0.3 µM
- IC50 (second compound 0.3 µM): 0.256 µM
- IC50 (second compound 0.949 µM): > 0.3 µM
- IC50 (second compound 3 µM): 0.216 µM
- viability, T/C (second compound 0.03 µM, first compound 0.000949 µM): 95.8%
- viability, T/C (second compound 0.03 µM, first compound 0.003 µM): 85.5%
- viability, T/C (second compound 0.03 µM, first compound 0.00949 µM): 82.1%
- viability, T/C (second compound 0.03 µM, first compound 0.03 µM): 76.5%
- viability, T/C (second compound 0.03 µM, first compound 0.0949 µM): 71.2%
- viability, T/C (second compound 0.03 µM, first compound 0.3 µM): 48.1%
- viability, T/C (second compound 0.0949 µM, first compound 0.000949 µM): 93.9%
- viability, T/C (second compound 0.0949 µM, first compound 0.003 µM): 99.9%
- viability, T/C (second compound 0.0949 µM, first compound 0.00949 µM): 81.9%
- viability, T/C (second compound 0.0949 µM, first compound 0.03 µM): 67.3%
- viability, T/C (second compound 0.0949 µM, first compound 0.0949 µM): 67.8%
- viability, T/C (second compound 0.0949 µM, first compound 0.3 µM): 48.2%
- viability, T/C (second compound 0.3 µM, first compound 0.000949 µM): 79.1%
- viability, T/C (second compound 0.3 µM, first compound 0.003 µM): 95.8%
- viability, T/C (second compound 0.3 µM, first compound 0.00949 µM): 86.9%
- viability, T/C (second compound 0.3 µM, first compound 0.03 µM): 72%
- viability, T/C (second compound 0.3 µM, first compound 0.0949 µM): 70.2%
- viability, T/C (second compound 0.3 µM, first compound 0.3 µM): 46.7%
- viability, T/C (second compound 0.949 µM, first compound 0.000949 µM): 103%
- viability, T/C (second compound 0.949 µM, first compound 0.003 µM): 108%
- viability, T/C (second compound 0.949 µM, first compound 0.00949 µM): 87.4%
- viability, T/C (second compound 0.949 µM, first compound 0.03 µM): 81.4%
- viability, T/C (second compound 0.949 µM, first compound 0.0949 µM): 66.2%
- viability, T/C (second compound 0.949 µM, first compound 0.3 µM): 53.3%
- viability, T/C (second compound 3 µM, first compound 0.000949 µM): 98.5%
- viability, T/C (second compound 3 µM, first compound 0.003 µM): 96.7%
- viability, T/C (second compound 3 µM, first compound 0.00949 µM): 80%
- viability, T/C (second compound 3 µM, first compound 0.03 µM): 69.7%
- viability, T/C (second compound 3 µM, first compound 0.0949 µM): 61.8%
- viability, T/C (second compound 3 µM, first compound 0.3 µM): 45.4%

Structure (SMILES): NC1CCC(NC2CC2c2ccccc2)CC1 (stereo not given) + CCN1C(C(=O)NC23CCC(C(=O)O)(CC2)CC3)C(c2cccc(Cl)c2F)C2(C(=O)Nc3cc(Cl)ccc32)C12CCCCC2
- IC50 (second compound 0.03 µM): > 0.1 µM
- IC50 (second compound 0.0949 µM): > 0.1 µM
- IC50 (second compound 0.3 µM): > 0.1 µM
- IC50 (second compound 0.949 µM): > 0.1 µM
- IC50 (second compound 3 µM): > 0.1 µM
- viability, T/C (second compound 0.03 µM, first compound 0.000316 µM): 98.4%
- viability, T/C (second compound 0.03 µM, first compound 0.001 µM): 90.7%
- viability, T/C (second compound 0.03 µM, first compound 0.00316 µM): 88.6%
- viability, T/C (second compound 0.03 µM, first compound 0.01 µM): 85.9%
- viability, T/C (second compound 0.03 µM, first compound 0.0316 µM): 97.3%
- viability, T/C (second compound 0.03 µM, first compound 0.1 µM): 89.8%
- viability, T/C (second compound 0.0949 µM, first compound 0.000316 µM): 89.9%
- viability, T/C (second compound 0.0949 µM, first compound 0.001 µM): 100%
- viability, T/C (second compound 0.0949 µM, first compound 0.00316 µM): 88.5%
- viability, T/C (second compound 0.0949 µM, first compound 0.01 µM): 82.5%
- viability, T/C (second compound 0.0949 µM, first compound 0.0316 µM): 93%
- viability, T/C (second compound 0.0949 µM, first compound 0.1 µM): 85.7%
- viability, T/C (second compound 0.3 µM, first compound 0.000316 µM): 89.9%
- viability, T/C (second compound 0.3 µM, first compound 0.001 µM): 90.9%
- viability, T/C (second compound 0.3 µM, first compound 0.00316 µM): 93.2%
- viability, T/C (second compound 0.3 µM, first compound 0.01 µM): 77.5%
- viability, T/C (second compound 0.3 µM, first compound 0.0316 µM): 94.3%
- viability, T/C (second compound 0.3 µM, first compound 0.1 µM): 97.3%
- viability, T/C (second compound 0.949 µM, first compound 0.000316 µM): 89.4%
- viability, T/C (second compound 0.949 µM, first compound 0.001 µM): 97.9%
- viability, T/C (second compound 0.949 µM, first compound 0.00316 µM): 97.6%
- viability, T/C (second compound 0.949 µM, first compound 0.01 µM): 88.9%
- viability, T/C (second compound 0.949 µM, first compound 0.0316 µM): 85.5%
- viability, T/C (second compound 0.949 µM, first compound 0.1 µM): 95.2%
- viability, T/C (second compound 3 µM, first compound 0.000316 µM): 102%
- viability, T/C (second compound 3 µM, first compound 0.001 µM): 99.6%
- viability, T/C (second compound 3 µM, first compound 0.00316 µM): 105%
- viability, T/C (second compound 3 µM, first compound 0.01 µM): 83.7%
- viability, T/C (second compound 3 µM, first compound 0.0316 µM): 89.5%
- viability, T/C (second compound 3 µM, first compound 0.1 µM): 91.5%
